Reference: patent US20240271213A1, “METHODS AND COMPOSITIONS COMPRISING FUNCTIONAL GENOMICS OF HIBERNATING MAMMALS” (Fauna Bio Incorporated, priority 2021, published 2024)

What was measured:
SH-SY5Y cells = assay: Aβ1-42 induced toxicity in SH-SY5Y cells, viability by MTT; assay type: cell-based, human; conditions: Aβ1-42 peptide added, vs vehicle control
Text: Alzheimer's disease progression features the accumulation of two protein aggregates: β-amyloid (Aβ) and tau; these play crucial roles in neuronal loss or dysfunction in Alzheimer's disease. To mimic pathogenesis of Alzheimer's disease, we used in vitro cell models that focus on Aβ-induced toxicity and tau hyperphosphorylation. SH-SY5Y human neuroblastoma cells (American Type Culture Collection; ATCC) were purchased and grown in appropriate culture medium. First, OE/KD and WT SH-SY5Y cells were equally seeded in wells of 96-well plates. Human SH-SY5Y neuroblastoma cells were successfully differentiated into mature neurons by incubating cells in retinoic acid and N2 supplement for 9 days (FIG. 16). These can be distinguished from the original SH-SY5Y cells, which are prone to grow in clusters and extend short neurites at edges of the clusters. […] Aβ-induced toxicity was examined by adding Aβ1-42 peptide to both WT and OE/KD cells. Aβ1-42 induced cell death in WT cells. […] To validate potential neuroprotective compounds identified by the integrated gene networks described above, in vitro assays were conducted with SH-SY5Y cells. Aβ-induced toxicity was examined by adding Aβ1-42 peptide to cells treated with vehicle control or test compounds (FIG. 19). […] Tau hyperphosphorylation was also examined, by exposing the SH-SY5Y cells to hypothermic conditions (30° C.).

AC16 cells [1] = assay: Ischemia-reperfusion assay in AC16 cells, cell viability; assay type: cell-based, human; conditions: 16 hours ischemia, 4 hours reperfusion, compound added prior to ischemia
Procedure: FIG. 18A is a graph showing in vitro cell viability of AC16 cells following 16 hrs ischemia and 4 hrs reperfusion and incubated with different concentrations of a compound identified for neuroprotection, Triptolide.
(§1) For ischemia-reperfusion assays, de-oxygenated serum free medium was prepared by adding 1% penicillin-streptomycin into glucose-free DMEM; the medium was contacted for 5 mins with 5% CO2 and 95% N2; and the medium was then warmed in a 37° C. bath. Cells were then washed with warm PBS to completely remove normal culture medium. PBS was aspirated and deoxygenated serum free medium was added into plates (100 μl was added for each well of 96-well plate). To mimic myocardial ischemia, cells in the experiment plate were subjected to ischemia by culturing them in glucose and serum free-medium and hypoxic conditions (5% CO2 and 95% N2). Plates were placed in a hypoxia chamber and air-tight lock; the chamber was filled with 5% CO2 and 95% N2 until oxygen level is 0%, and then the chamber was placed in the incubator for a duration of ischemia time. […] Cell viability was determined by MTT assay The control cells were considered to be 100% viable; changes in viability in the experiment plates were measured relative to the control. […]

AC16 cells [2] = assay: Ischemia-reperfusion assay in AC16 cells, cell damage (LDH activity); assay type: cell-based, human; conditions: 16 hours ischemia, 4 hours reperfusion, compound added prior to ischemia
Procedure: FIG. 18B is a graph showing a decrease in cell damage response (LDH activity) of AC16 cells following 16 hrs ischemia and 4 hrs reperfusion and incubated with different concentrations of Triptolide.
as §1, with “time. The duration of ischemia was 21 hours for H9C2 cells; 29 hours for differentiated SH-SY5Y cells; 16 hours for AC16 cells; and 16 hours for native SH-SY5Y cells.” for “time.”

AC16 cells [3] = assay: Reactive oxygen species (ROS) production in AC16 cells; assay type: cell-based, human; conditions: AC16 cells following incubation with compound
H9C2 cells = assay: Ischemia-reperfusion assay in H9C2 cells, viability by MTT; assay type: cell-based, rat; conditions: melatonin added at start of ischemia, control wells ~75% viable, normoxic control = 100%
Procedure: FIG. 17 is a graph illustrating results of an in vitro validation assay for ischemia-reperfusion injury in H9C2 cells. H9C2 cells were exposed to ischemia for […] and reperfusion for 4 hrs were contacted with differing concentrations of melatonin at the start of ischemia. Viability was measured using the MTT assay. Data are expressed as the mean +/− standard deviation in experiments performed in triplicate. * p<0.05 and ** […] compared to vehicle control.
as §1, with “N2).” for “N2). Plates were placed in a hypoxia chamber and air-tight lock; the chamber was filled with 5% CO2 and 95% N2 until oxygen level is 0%, and then the chamber was placed in the incubator for a duration of ischemia time.”

## CC12CC3CC(C)(C1)CC(N)(C3)C2 [Memantine]
SH-SY5Y cells
  cell viability under Aβ1-42 toxicity (MTT): increase in cell viability

## CC(C)[C@]12O[C@H]1[C@@H]1O[C@]13[C@]1(O[C@H]1C[C@H]1C4=C(CC[C@@]13C)C(=O)OC4)[C@@H]2O [Triptolide]
AC16 cells [1]
  cell viability after ischemia-reperfusion: increased cell viability
AC16 cells [2]
  cell damage (LDH activity) after ischemia-reperfusion: reduced cell damage
AC16 cells [3]
  production of reactive oxygen species (ROS): decrease production of reactive oxygen species (ROS)

## COc1ccc2[nH]cc(CCNC(C)=O)c2c1 [melatonin]
H9C2 cells
  viable cells after ischemia-reperfusion (MTT): ~90%
